The record followed here is publication doi:10.1101/2023.03.24.534094v2 (biorxiv, 2023).

Among the targets are CLK3 (Homo sapiens, UniProt P49761); MSK1b (Homo sapiens, UniProt O75582); CaMKK2 (Homo sapiens, UniProt Q96RR4); SRPK1 (Homo sapiens, UniProt Q96SB4); MAPKAPK2 (Homo sapiens, UniProt P49137); JNK2 (Homo sapiens, UniProt P45984); JNK1 (Homo sapiens, UniProt P45983).
Assay in all cases: biochemical
A further assay concerns the target T1, Haspin (Homo sapiens, UniProt Q8TF76).
T1 sequence (Q8TF76 1-798): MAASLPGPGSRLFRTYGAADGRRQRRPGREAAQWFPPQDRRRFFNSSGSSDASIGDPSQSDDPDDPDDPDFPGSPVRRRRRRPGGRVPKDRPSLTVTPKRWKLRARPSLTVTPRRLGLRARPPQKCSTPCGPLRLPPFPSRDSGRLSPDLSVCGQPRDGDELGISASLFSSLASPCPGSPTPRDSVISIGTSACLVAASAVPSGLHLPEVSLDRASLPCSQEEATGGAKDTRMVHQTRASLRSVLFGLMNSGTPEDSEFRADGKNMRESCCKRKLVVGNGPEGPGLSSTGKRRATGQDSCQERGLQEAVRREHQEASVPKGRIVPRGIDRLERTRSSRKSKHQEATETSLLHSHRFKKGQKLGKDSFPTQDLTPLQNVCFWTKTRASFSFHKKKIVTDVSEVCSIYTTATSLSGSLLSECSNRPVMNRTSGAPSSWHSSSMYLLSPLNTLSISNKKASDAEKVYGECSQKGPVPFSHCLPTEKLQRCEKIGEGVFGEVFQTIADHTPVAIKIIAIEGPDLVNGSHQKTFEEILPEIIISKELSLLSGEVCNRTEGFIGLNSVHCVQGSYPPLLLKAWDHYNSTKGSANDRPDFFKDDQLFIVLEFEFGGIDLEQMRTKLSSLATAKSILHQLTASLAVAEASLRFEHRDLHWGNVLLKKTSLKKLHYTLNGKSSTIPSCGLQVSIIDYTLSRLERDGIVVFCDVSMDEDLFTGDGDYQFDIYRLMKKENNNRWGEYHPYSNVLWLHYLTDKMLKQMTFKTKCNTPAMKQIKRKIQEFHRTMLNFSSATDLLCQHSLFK

The next assay concerns the target T2, NEK1 (Homo sapiens, UniProt Q96PY6).
T2 sequence (Q96PY6 1-1258): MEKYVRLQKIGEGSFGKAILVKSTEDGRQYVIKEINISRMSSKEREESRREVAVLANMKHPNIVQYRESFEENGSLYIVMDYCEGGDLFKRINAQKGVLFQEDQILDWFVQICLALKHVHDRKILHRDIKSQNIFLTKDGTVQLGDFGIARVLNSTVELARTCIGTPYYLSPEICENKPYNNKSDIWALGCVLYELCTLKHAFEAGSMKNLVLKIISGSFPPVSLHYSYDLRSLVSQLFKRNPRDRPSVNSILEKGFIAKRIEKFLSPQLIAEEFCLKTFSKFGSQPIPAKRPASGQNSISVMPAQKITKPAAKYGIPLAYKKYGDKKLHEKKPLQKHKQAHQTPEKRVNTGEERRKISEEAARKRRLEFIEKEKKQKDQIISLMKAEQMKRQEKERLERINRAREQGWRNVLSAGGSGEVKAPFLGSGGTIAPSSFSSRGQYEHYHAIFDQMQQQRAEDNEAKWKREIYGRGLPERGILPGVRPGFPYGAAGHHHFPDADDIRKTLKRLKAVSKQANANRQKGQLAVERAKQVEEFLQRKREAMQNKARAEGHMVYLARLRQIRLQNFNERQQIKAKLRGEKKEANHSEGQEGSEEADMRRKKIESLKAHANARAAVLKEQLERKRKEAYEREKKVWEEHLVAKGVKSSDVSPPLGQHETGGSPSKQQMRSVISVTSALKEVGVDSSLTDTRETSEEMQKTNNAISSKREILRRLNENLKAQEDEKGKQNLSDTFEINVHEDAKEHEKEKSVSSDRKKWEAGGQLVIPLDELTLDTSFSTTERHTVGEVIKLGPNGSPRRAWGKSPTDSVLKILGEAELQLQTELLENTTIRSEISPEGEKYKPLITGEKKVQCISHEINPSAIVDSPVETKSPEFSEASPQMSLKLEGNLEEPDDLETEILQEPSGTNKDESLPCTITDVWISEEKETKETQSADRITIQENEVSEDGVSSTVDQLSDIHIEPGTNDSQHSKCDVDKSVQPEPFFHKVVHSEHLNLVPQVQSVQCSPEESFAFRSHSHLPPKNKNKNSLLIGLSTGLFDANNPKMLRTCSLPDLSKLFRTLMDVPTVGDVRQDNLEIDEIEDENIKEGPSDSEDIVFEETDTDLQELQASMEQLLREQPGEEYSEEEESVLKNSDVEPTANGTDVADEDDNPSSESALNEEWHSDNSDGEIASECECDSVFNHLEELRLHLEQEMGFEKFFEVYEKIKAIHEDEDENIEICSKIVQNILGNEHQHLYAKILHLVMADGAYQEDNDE

Like-named read-outs stand apart in the source and are kept apart here.

Chain of MSK1b (O75582 whole entry): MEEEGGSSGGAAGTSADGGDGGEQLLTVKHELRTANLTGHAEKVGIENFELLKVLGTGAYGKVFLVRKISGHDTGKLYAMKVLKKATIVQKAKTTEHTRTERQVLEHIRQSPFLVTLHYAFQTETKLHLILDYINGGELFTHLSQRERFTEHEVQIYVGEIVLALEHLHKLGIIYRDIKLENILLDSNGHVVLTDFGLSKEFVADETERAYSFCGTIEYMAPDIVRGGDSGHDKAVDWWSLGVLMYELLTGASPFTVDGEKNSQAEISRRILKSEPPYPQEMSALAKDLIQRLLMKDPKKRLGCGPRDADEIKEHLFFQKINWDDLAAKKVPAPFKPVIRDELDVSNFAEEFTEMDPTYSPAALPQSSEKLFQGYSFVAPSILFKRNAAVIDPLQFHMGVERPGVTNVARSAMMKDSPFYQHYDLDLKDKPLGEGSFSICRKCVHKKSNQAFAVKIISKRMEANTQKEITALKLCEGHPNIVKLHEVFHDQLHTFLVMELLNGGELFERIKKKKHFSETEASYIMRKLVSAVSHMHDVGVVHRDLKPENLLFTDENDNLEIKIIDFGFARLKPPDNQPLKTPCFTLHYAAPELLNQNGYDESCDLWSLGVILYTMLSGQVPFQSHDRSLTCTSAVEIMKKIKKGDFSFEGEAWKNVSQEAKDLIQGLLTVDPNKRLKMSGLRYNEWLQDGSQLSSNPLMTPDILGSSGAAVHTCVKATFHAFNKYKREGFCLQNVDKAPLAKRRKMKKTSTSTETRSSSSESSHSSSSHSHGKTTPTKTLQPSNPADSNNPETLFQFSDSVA
Chain of JNK2 (P45984 whole entry): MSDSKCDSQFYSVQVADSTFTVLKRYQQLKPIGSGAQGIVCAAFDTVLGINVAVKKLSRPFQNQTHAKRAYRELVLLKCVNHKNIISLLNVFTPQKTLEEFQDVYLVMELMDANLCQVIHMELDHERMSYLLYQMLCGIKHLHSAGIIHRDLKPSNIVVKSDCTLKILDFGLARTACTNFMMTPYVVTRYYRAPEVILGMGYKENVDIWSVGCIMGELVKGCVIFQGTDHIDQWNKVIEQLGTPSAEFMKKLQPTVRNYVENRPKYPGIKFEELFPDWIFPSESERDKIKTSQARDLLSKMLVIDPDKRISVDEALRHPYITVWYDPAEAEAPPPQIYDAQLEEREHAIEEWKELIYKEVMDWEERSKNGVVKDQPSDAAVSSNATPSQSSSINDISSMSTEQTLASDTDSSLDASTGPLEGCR
Chain of SRPK1 (Q96SB4 whole entry): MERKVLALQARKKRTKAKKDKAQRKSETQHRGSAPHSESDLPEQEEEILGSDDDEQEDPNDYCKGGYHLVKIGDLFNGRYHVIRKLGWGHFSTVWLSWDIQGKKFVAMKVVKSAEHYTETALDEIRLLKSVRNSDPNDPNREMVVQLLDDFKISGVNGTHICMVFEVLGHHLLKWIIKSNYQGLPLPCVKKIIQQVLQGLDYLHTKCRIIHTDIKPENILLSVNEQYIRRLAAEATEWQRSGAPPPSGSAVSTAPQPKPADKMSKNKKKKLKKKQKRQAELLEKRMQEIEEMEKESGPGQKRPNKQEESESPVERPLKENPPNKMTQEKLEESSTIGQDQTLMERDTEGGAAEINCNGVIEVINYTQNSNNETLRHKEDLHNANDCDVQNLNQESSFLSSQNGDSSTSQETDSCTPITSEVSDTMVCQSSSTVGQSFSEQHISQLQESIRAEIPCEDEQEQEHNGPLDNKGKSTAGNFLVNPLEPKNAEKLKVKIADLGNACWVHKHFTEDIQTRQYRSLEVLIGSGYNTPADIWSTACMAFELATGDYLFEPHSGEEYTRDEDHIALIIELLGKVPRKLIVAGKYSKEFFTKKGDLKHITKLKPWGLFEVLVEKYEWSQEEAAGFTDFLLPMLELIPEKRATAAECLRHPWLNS
Chain of MAPKAPK2 (P49137 whole entry): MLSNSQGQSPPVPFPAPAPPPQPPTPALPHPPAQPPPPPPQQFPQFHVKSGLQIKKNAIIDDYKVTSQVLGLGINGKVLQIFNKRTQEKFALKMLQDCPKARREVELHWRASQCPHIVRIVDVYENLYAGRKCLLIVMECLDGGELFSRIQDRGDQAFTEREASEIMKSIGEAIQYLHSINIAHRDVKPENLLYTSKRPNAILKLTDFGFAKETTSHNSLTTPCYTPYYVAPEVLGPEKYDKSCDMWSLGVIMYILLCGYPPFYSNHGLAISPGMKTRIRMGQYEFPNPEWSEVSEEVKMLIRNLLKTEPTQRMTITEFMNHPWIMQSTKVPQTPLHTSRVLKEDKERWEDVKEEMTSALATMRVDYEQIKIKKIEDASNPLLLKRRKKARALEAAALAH
Chain of CaMKK2 (Q96RR4 whole entry): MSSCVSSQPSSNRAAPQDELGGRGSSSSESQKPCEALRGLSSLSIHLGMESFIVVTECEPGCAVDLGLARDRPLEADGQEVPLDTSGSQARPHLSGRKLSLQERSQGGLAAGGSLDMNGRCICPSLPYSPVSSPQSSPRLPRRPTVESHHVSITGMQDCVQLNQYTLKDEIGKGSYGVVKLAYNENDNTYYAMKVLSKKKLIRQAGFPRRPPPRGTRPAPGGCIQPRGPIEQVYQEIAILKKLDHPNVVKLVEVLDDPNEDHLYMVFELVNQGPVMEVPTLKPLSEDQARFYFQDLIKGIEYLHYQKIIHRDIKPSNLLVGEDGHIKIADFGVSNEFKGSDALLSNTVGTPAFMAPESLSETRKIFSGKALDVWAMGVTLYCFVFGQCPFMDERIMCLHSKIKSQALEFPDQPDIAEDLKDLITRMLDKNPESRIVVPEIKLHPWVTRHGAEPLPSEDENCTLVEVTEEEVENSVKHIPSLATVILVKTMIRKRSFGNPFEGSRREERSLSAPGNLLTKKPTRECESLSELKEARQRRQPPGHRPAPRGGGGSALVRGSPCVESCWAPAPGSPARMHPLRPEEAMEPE
Chain of JNK1 (P45983 whole entry): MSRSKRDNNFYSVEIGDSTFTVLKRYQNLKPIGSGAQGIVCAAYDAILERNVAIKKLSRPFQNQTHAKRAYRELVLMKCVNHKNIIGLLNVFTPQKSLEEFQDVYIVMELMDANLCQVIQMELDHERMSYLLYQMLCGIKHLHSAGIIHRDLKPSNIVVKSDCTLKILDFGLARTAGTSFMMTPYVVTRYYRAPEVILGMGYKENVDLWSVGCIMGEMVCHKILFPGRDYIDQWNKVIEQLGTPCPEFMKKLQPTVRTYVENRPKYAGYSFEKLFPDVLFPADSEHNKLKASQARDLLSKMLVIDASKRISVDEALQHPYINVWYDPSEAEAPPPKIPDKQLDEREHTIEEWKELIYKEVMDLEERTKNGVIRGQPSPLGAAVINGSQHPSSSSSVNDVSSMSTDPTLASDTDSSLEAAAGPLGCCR
Chain of CLK3 (P49761 whole entry): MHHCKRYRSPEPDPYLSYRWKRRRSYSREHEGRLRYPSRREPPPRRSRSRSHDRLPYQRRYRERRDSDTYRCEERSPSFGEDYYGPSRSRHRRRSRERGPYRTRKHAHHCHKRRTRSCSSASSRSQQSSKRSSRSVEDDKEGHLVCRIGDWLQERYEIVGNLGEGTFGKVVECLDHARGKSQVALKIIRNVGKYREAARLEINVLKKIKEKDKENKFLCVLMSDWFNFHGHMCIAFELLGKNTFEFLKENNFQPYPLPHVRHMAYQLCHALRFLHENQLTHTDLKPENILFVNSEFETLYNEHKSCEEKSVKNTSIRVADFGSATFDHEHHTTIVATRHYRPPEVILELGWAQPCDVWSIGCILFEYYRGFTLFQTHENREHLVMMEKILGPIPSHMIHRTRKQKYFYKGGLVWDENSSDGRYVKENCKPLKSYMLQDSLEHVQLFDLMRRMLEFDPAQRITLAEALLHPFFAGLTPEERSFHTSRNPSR

On to `CNc1ncc2cc(-c3ccc(-c4cccc(C)n4)cc3Cl)c(=O)n(CC3OCC(N)CO3)c2n1` (centres unmarked) [compound 2, G-5555], for which the “dTm G-5555 (2)” value at CLK3 (10 µM, binder) is 0.1 °C; at MSK1b (10 µM, binder), 2.0 °C; on CaMKK2 (10 µM, binder), 1.1 °C; at SRPK1 (10 µM, binder), -0.4 °C; on Haspin (10 µM, binder) it was 0.2 °C; at MAPKAPK2 (10 µM, binder), -0.3 °C. For the same molecule, the “dTm G-5555 (2)” value was -2.2 °C at NEK1 (10 µM, binder) and 0.6 °C on JNK2 (10 µM, binder).

Take `CNc1ncc2cc(-c3cc(Br)ccc3Cl)c(=O)n(C[C@H]3OC[C@H](N)CO3)c2n1` [compound 7, 8-(((2r,5r)-5-Amino-1,3-dioxan-2-yl)methyl)-6-(5-bromo-2-chlorophenyl)-2-(methylamino)pyrido[2,3-d]pyrimidin-7(8H)-one]: the ΔTm at 10 µM on CLK3 (read-out: dTm 7) was found to be 0.5 °C; at MSK1b (read-out: dTm 7), 1.1 °C; at JNK1 (read-out: dTm 7), 0.9 °C; on CaMKK2 (read-out: dTm 7), 0.5 °C; on SRPK1 (read-out: dTm 7), 0.1 °C; at Haspin (read-out: dTm 7) it was 0.7 °C. The values for the ΔTm at 10 µM on MAPKAPK2 (read-out: dTm 7), at NEK1 (read-out: dTm 7) and at JNK2 (read-out: dTm 7) were 0 °C, 0.1 °C and 1.1 °C, respectively.

Consider `CNc1ncc2cc(-c3cc(Br)ccc3Cl)c(=O)n(CCCCN)c2n1` [compound 6, 8-(4-Aminobutyl)-6-(5-bromo-2-chlorophenyl)-2-(methylamino)pyrido[2,3-d]pyrimidin-7(8H)-one], for which the ΔTm at 10 µM on CLK3 (read-out: dTm 6) is -0.3 °C; on MSK1b (read-out: dTm 6), 0.3 °C; at JNK1 (read-out: dTm 6) it was 0.2 °C; at CaMKK2 (read-out: dTm 6) it was -0.2 °C; at SRPK1 (read-out: dTm 6) it was 0.1 °C; on Haspin (read-out: dTm 6) it was 0.7 °C. Further, the ΔTm at 10 µM at MAPKAPK2 (read-out: dTm 6) was -0.7 °C; on NEK1 (read-out: dTm 6), -0.3 °C; on JNK2 (read-out: dTm 6), -0.4 °C.

On to `CNc1ncc2cc(-c3ccccc3Cl)c(=O)n(CCCCN)c2n1` [compound 4, 8-(4-Aminobutyl)-6-(2-chlorophenyl)-2-(methylamino)pyrido[2,3-d]pyrimidin-7(8H)-one], for which the ΔTm at 10 µM is 0 °C at CLK3 (read-out: dTm MR21 (4)); 2.1 °C on MSK1b (read-out: dTm MR21 (4)); 0.9 °C on JNK1 (read-out: dTm MR21 (4)); 0.6 °C on CaMKK2 (read-out: dTm MR21 (4)); 0.6 °C on SRPK1 (read-out: dTm MR21 (4)); 0.7 °C at Haspin (read-out: dTm MR21 (4)). Moreover, the values for the ΔTm at 10 µM on MAPKAPK2 (read-out: dTm MR21 (4)), at NEK1 (read-out: dTm MR21 (4)) and on JNK2 (read-out: dTm MR21 (4)) were 0.1 °C, 0.1 °C and -0.1 °C, respectively.

Turning to `CNc1ncc2cc(-c3cc(F)ccc3F)c(=O)n(CCCCN)c2n1` [compound 5, 8-(4-Aminobutyl)-6-(2,5-difluorophenyl)-2-(methylamino)pyrido[2,3-d]pyrimidin-7(8H)-one], the ΔTm at 10 µM is -0.4 °C on CLK3 (read-out: dTm MR22 (5)); 1.5 °C at MSK1b (read-out: dTm MR22 (5)); 5.5 °C at JNK1 (read-out: dTm MR22 (5)); -0.1 °C on CaMKK2 (read-out: dTm MR22 (5)); 0.3 °C at SRPK1 (read-out: dTm MR22 (5)); -0.3 °C on Haspin (read-out: dTm MR22 (5)). The ΔTm at 10 µM is -0.1 °C at MAPKAPK2 (read-out: dTm MR22 (5)), 0 °C at NEK1 (read-out: dTm MR22 (5)) and 0.2 °C on JNK2 (read-out: dTm MR22 (5)).
